Test results taken from the supplement of paper PMC11061612.

Tests used:
[1] = system: CA46 (Burkitt's Lymphoma); test: Bliss excess, mean over the matrix (fraction); higher = more synergy
Summary of the method: (§1)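 Cell lines grown in DMEM/F12 or RPMI with 10% FBS were plated in 1536-well plates and held 24 hours at 37°C, 5% CO2 before 72 hours of exposure to two-drug dose matrices, with DMSO typically at 0.2%. CellTiter-Glo 2.0 luminescence gave viability, which was converted to inhibition. Vehicle wells were set to 0 and blank wells to 1. Combination Emax is the second-highest inhibition in the matrix, and Bliss excess is the observed combination effect minus the expected EA + EB − EA·EB, where EA and EB are the single-agent effects.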

[2] = system: CESS (Acute Myeloid Leukemia); test: as above
Summary of the method: as §1

[3] = system: COLO-792 (Melanoma); test: as above
Summary of the method: as §1

[4] = system: DMS-53 (Small Cell Lung Carcinoma); test: as above
Summary of the method: as §1

[5] = system: DU-4475 (Breast Carcinoma); test: as above
Summary of the method: as §1

[6] = system: EW-16 (Ewing's Sarcoma); test: as above
Summary of the method: as §1

[7] = system: G-402 (Other Solid Carcinomas); test: as above
Summary of the method: as §1

[8] = system: HT55 (Colorectal Carcinoma); test: as above
Summary of the method: as §1

[9] = system: JVM-2 (B-Cell Non-Hodgkin's Lymphoma); test: as above
Summary of the method: as §1

[10] = system: Jurkat (T-Lymphoblastic Leukemia); test: as above
Summary of the method: as §1

[11] = system: KP-N-YN (Neuroblastoma); test: as above
Summary of the method: as §1

[12] = system: NCI-H716 (Colorectal Carcinoma); test: as above
Summary of the method: as §1

[13] = system: OACp4C (Esophageal Adenocarcinoma); test: as above
Summary of the method: as §1

[14] = system: 769-P (Kidney Carcinoma); test: combination Emax (second highest fraction inhibited in the dose matrix, 72 h); higher = more inhibition; extreme values may be limits of the assay
Summary of the method: as §1

[15] = system: JHH-2 (Hepatocellular Carcinoma); test: as above
Summary of the method: as §1

[16] = system: JHU-022 (Oral Cavity Carcinoma); test: as above
Summary of the method: as §1

[17] = system: MDA-MB-436 (Breast Carcinoma); test: as above
Summary of the method: as §1

[18] = system: NCI-H1651 (Lung Adenocarcinoma); test: as above
Summary of the method: as §1

[19] = system: NCI-H2087 (Lung Adenocarcinoma); test: as above
Summary of the method: as §1

[20] = system: NCI-H441 (Lung Adenocarcinoma); test: as above
Summary of the method: as §1
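For Bliss excess, mean over the matrix in this document: after 72 h of two-drug dosing.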

Row | Structure (SMILES) | Bliss excess [1] | Bliss excess [2] | Bliss excess [3] | Bliss excess [4] | Bliss excess [5] | Bliss excess [6] | Bliss excess [7] | Bliss excess [8] | Bliss excess [9] | Bliss excess [10] | Bliss excess [11] | Bliss excess [12] | Bliss excess [13] | combination Emax [14] | combination Emax [15] | combination Emax [16] | combination Emax [17] | combination Emax [18] | combination Emax [19] | combination Emax [20]
1 | CN(CCO)CC[C@H](CSc1ccccc1)Nc1ccc(S(=O)(=O)NC(=O)c2ccc(N3CCC([C@@H](O)c4ccccc4-c4ccc(Cl)cc4)CC3)cc2)cc1S(=O)(=O)C(F)(F)F [AZD4320] + C1CN(CCC1(C(=O)N[C@@H](CCO)C2=CC=C(C=C2)Cl)N)C3=NC=NC4=C3C=CN4 [Capivasertib] (first compound max 1 µM, 7x7, partner max 3 µM) | -0.0496 | 0.0517 | 0.0021 | -0.0195 | 0.069 | -0.0469 | -0.0262 | -0.0469 | -0.0068 | -0.0203 | -0.0237 | -0.0262 | 0.0209 | 0.576 | 0.539 | 0.308 | 0.142 | 0.193 | 0.232 | 0.173
2 | CN(CCO)CC[C@H](CSc1ccccc1)Nc1ccc(S(=O)(=O)NC(=O)c2ccc(N3CCC([C@@H](O)c4ccccc4-c4ccc(Cl)cc4)CC3)cc2)cc1S(=O)(=O)C(F)(F)F [AZD4320] + C=CCn1c(=O)c2cnc(Nc3ccc(N4CCN(C)CC4)cc3)nc2n1-c1cccc(C(C)(C)O)n1 [AZD1775] (first compound max 1 µM, partner max 1 µM) | 0.0175 | 0.0873 | 0.0939 | 0.0817 | 0.0013 | 0.033 | -0.0345 | 0.0167 | 0.0965 | 0.0568 | 0.0631 | 0.0021 | -0.0071 | 0.962 | 0.604 | 0.579 | 0.196 | 0.746 | 0.68 | 0.552
3 | C[C@@H](c1ccc2nccn2c1)n1nnc2ncc(-c3cnn(C)c3)nc21 [Savolitinib] + Cc1c2c(nn1C)CSCc1cc(n(C)n1)CSc1cc(c3ccccc3c1)OCCCc1c(C(=O)O)n(C)c3c-2c(Cl)ccc13 [AZD5991] (first compound max 1 µM, 7x7, partner max 1 µM) | -0.03 | -0.048 | -0.0446 | -0.0359 | 0.007 | -0.032 | -0.0611 | -0.0697 | -0.021 | -0.103 | 0.0028 | -0.0572 | -0.0328 | 0.158 | 0.142 | 0.132 | 0.18 | 0.183 | 0.204 | 0.221
4 | CN(CCO)CC[C@H](CSc1ccccc1)Nc1ccc(S(=O)(=O)NC(=O)c2ccc(N3CCC([C@@H](O)c4ccccc4-c4ccc(Cl)cc4)CC3)cc2)cc1S(=O)(=O)C(F)(F)F [AZD4320] + C[C@@H]1COCCN1C2=NC(=NC(=C2)C3(CC3)[S@](=N)(=O)C)C4=C5C=CNC5=NC=C4 [AZD6738] (first compound max 1 µM, 7x7, partner max 10 µM) | -0.0275 | 0.02 | -0.105 | 0.0446 | 0.0521 | -0.101 | -0.0805 | 0.0093 | 0.0102 | -0.0112 | -0.019 | -0.0311 | -0.036 | 0.966 | 0.792 | 0.753 | 0.34 | 0.728 | 0.919 | 0.69
5 | Cc1cc2ncnn2cc1Nc1ncc2c(n1)n(C1CCOCC1)c(=O)n2C [AZD7648] + C[C@@H]1COCCN1C2=NC(=NC(=C2)C3(CC3)[S@](=N)(=O)C)C4=C5C=CNC5=NC=C4 [AZD6738] (first compound max 10 µM, 7x7, partner max 10 µM) | 0.0493 | 0.0058 | 0.0187 | 0.0179 | 0.0019 | 0.0269 | 0.0185 | 0.0268 | -0.0555 | 0.011 | -0.0083 | 0.0287 | -0.0284 | 0.819 | 0.736 | 0.578 | 0.362 | 0.536 | 0.583 | 0.478
6 | Cc1cc2ncnn2cc1Nc1ncc2c(n1)n(C1CCOCC1)c(=O)n2C [AZD7648] + O=C(c1cc(Cc2n[nH]c(=O)c3ccccc23)ccc1F)N1CCN(C(=O)C2CC2)CC1 [Olaparib] (first compound max 10 µM, 7x7, partner max 10 µM) | -0.0518 | -0.0101 | -0.0435 | -0.0266 | 0.0289 | -0.0484 | -0.0814 | -0.0497 | -0.0275 | 0.108 | 0.0332 | -0.0056 | -0.0203 | 0.232 | 0.473 | 0.172 | 0.195 | 0.263 | 0.135 | 0.163
